# From US8962692B2, “Cysteine and cystine prodrugs to treat schizophrenia and reduce drug cravings” (Marquette University, priority 2008, dated 2015)
# Legend:
# [1] = system: PCP-induced deficits in sensorimotor gating; experiment: Prepulse inhibition of startle response; reversal of PCP-induced deficits in sensorimotor gating; details: for inhibition of startle response (prepulse inhibition): difference relative to rats receiving PCP alone and/or N-acetylcysteine 30 mg/kg: compound pretreatment 60 min, prepulse 2-15 dB above background, Fisher LSD p<0.05
# [2] = system: cocaine-induced reinstatement; experiment: Extinction/reinstatement paradigm: cocaine-induced reinstatement of lever pressing; format: in vivo; details: rats, cocaine 10 mg/kg IP
# compulsive drug-seeking = details: rodents, preclinical studies; cited from earlier work
# [3] = human subjects; cited from earlier work
# cocaine use and craving = details: cocaine abusers receiving NAC, clinical data; cited from earlier work
# [4] = rats, phencyclidine 1.25 mg/kg SC
SMILES,"inhibition of startle response (prepulse inhibition): difference relative to rats receiving PCP alone and/or N-acetylcysteine 30 mg/kg [1, 4]",melting point,further results
"CCOC1=N[C@@H](CS)C(OCC)=NC1 [Compound 5a, (3,6-Diethoxy-2,5-dihydro-,pyrazin-2-yl)-methanethiol]",significant difference,–,–
"CC(C)(C)SC[C@H]1NC(=O)[C@H](CS)NC1=O [Compound 4e, (6R)-3-(tert-butylthiomethyl)-6-(mercaptomethyl)piperazine-2,5-dione]",–,> 280 °C (dec.),–
"CC(C)[C@H]1NC(=O)[C@H](CS)NC1=O [Compound 4d, (6R)-3-isopropyl-6-(mercaptomethyl)piperazine-2,5-dione]",–,> 275 °C,–
"CCOC1=N[C@@H](CSCC)C(=O)N[C@@H]1Cc1ccccc1 [Compound 6b-b, (3R,6R)-6-Benzyl-5-ethoxy-3-(ethylthiomethyl)-1,6-dihydropyrazin-2(3H)-one]",–,118 °C,–
O=C1CNC(=O)[C@H](CSSC[C@H]2NC(=O)[C@H](Cc3ccccc3)NC2=O)N1 [Compound 11-a-b],significant difference,–,–
"c1ccc(C2(N3CCCCC3)CCCCC2)cc1 [PCP, phencyclidine, reference compound]",–,–,"effect of PCP on prepulse inhibition ([1]; rats, pcp 0-2.0 mg/kg, FIG. 4): disrupt prepulse inhibition"
"O=C1N[C@@H](CSSc2ccccc2)C(=O)N2CCC[C@H]12 [Compound 3b-c, (3R,8aR)-3-((phenyldisulfanyl)methyl)hexahydropyrrolo[1,2-a]pyrazine-1,4-dione]",–,120 °C,–
"O=C1CNC(=O)[C@@H](CSC(c2ccccc2)(c2ccccc2)c2ccccc2)N1 (stereo in doubt) [Compound 3c-a, 3-Tritylsulfanylmethyl-piperazine-2,5-dione]",–,225 to 227 °C,–
"O=C1CNC(=O)[C@H](CS)N1 [Compound 4a, 2,5-piperazinedione, 3-(mercaptomethyl)-]",significant difference,258 °C,–
"CCOC1=N[C@@H](CSSC[C@H]2N=C(OCC)CN=C2OCC)C(OCC)=NC1 [Compound 5a-D, Bis[(3,6-Diethoxy-2,5-dihy-dro-pyrazin-2-yl)-methanethiol]]",significant difference,–,"cocaine-induced reinstatement ([2]; 1 mg/kg (p.o.), comparable to 30 mg/kg NAC): sufficient to block cocaine-induced reinstatement"
CC(C)C1NC(=O)[C@@H](CSSC[C@@H]2NC(=O)CNC2=O)NC1=O (stereo partly shown) [Compound 11-a-d],significant difference,–,–
"O=C1CNC(=O)[C@H](CSSC[C@@H]2NC(=O)CNC2=O)N1 [Compound 7a, Bis[2,5-Piperazinedione, 3-(mercaptomethyl)-]]",significant difference,–,–
CC(=O)N[C@@H](CS)C(=O)O [N-acetyl cysteine],–,–,"compulsive drug-seeking (compulsive drug-seeking): effective in blocking compulsive drug-seeking; cocaine-induced reinstatement ([2]; 30 mg/kg IP, responding 120 min): significant reduction; cocaine-induced reinstatement ([2]; 60 mg/kg IP, responding 120 min): significant reduction; cocaine-induced reinstatement ([2]; given orally): less effective; phencyclidine-induced deficits in sensorimotor gating ([1]; direct delivery into the brain (prefrontal cortex)): reverses phencyclidine-induced deficits in sensorimotor gating; sensorimotor gating (prepulse inhibition) after PCP ([1]; rats, N-acetyl cysteine 30 mg/kg po, pretreated 60 min, phencyclidine 1.25 mg/kg SC): failed to exhibit sensorimotor gating; safety/tolerability profile [3]: favorable safety/tolerability profile; cocaine use and craving (cocaine use and craving): reduction in cocaine use and craving"
